From patent publication US12371454B2, “Cyclic peptide compound having Kras inhibitory action” (priority 2019, dated 2025)
Positions of bridges follow the written chain, without caps; N, C: chain ends. Non-standard residues stand in square brackets, D forms with d. Residues, ends and D or L forms follow the SMILES beside them. *: point of attachment. hPhe(3,5-F2-4-CF3) = N[C@@H](CCc1cc(F)c(C(F)(F)F)c(F)c1)C(=O)O; hPhe(3-Cl-4-CF3) = N[C@@H](CCc1ccc(C(F)(F)F)c(Cl)c1)C(=O)O; Phe(2-OCF3) = N[C@@H](Cc1ccccc1OC(F)(F)F)C(=O)O; 3Oxa8azabicyclo(3.2.1)octane = C1CC2COCC1N2*; NEtPhe(4-Me) = CCN[C@@H](Cc1ccc(C)cc1)C(=O)O; NMePhe(3-Cl) = CN[C@@H](Cc1cccc(Cl)c1)C(=O)O; NMePhe(4-Cl) = CN[C@@H](Cc1ccc(Cl)cc1)C(=O)O; NMePhe(4-Me) = CN[C@@H](Cc1ccc(C)cc1)C(=O)O; NMeGly(cPent) = CN[C@H](C(=O)O)C1CCCC1; Phe(3-I) = N[C@@H](Cc1cccc(I)c1)C(=O)O; NMeCha = CN[C@@H](CC1CCCCC1)C(=O)O; Azetidine(3,3-F2) = FC1(F)CN(*)C1; NMeChg = CN[C@H](C(=O)O)C1CCCCC1; NMeI = CC[C@H](C)[C@H](NC)C(=O)O; NMeD = CN[C@@H](CC(=O)O)C(=O)O; NMeL = CN[C@@H](CC(C)C)C(=O)O; Cba = N[C@@H](CC1CCC1)C(=O)O; NMeV = CN[C@H](C(=O)O)C(C)C; d(β3hA) = C[C@@H](N)CC(=O)O; Iva = CC[C@](C)(N)C(=O)O; NMeA = CN[C@@H](C)C(=O)O; NMeAib = CNC(C)(C)C(=O)O; Nle = CCCC[C@H](N)C(=O)O; Piperidide = C1CCN(*)CC1; Ac5c = NC1(C(=O)O)CCCC1; Aze = O=C(O)[C@@H]1CCN1; Isopentyl = CC(C)CC*; Sar = CNCC(=O)O

What follows are compounds tested against T1, Kras and SOS1 (biotin-tagged human Kras loaded with GDP, His-tagged human SOS1) (Homo sapiens, UniProt P01116, G12D) (assay: Protein-protein interaction inhibition between Kras and SOS1 (KrasGl2D-SOS PPI) using AlphaScreen). Settings: AlphaScreen; biotin-tagged human Kras loaded with GDP, His-tagged human SOS1; read-out: KRAS G12D-SOS PPI IC50.
T1 construct: made in house; host or cells: E. coli (stated for Kras only)
T1 sequence (P01116 1-188 isoform P01116-2 G12D): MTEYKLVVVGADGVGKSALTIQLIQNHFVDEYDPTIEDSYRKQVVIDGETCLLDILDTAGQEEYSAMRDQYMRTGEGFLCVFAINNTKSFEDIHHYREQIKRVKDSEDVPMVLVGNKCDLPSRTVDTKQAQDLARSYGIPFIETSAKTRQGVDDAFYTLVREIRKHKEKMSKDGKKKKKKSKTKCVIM
Format: binding
Method in brief: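 Read-out is acceptor-bead light at 520-620 nm, arising when 680 nm-irradiated nickel donor beads pass singlet oxygen to streptavidin acceptors. The bead pair links His-tagged SOS1 with biotin-tagged, GDP-bound Kras from E. coli.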

**Q.** For CC(C)CCOC[C@@H]1NC(=O)[C@H](CC(C)C)N(C)C(=O)C[C@@H](C(=O)N2CCCCC2)N(C)C(=O)[C@H](C2CCCCC2)N(C)C(=O)C2(CCCC2)NC(=O)[C@@H]2CCCN2C(=O)[C@H](CCc2ccc(C(F)(F)F)c(Cl)c2)NC(=O)CN(C)C(=O)[C@H](CC2CCCCC2)N(C)C(=O)CN(C)C(=O)CN(C)C1=O [Compound 794] ([NMeL]S(Isopentyl)[Sar][Sar][NMeCha][Sar][hPhe(3-Cl-4-CF3)]P[Ac5c][NMeChg][NMeD]-Piperidide; lactam N-11), which IC50 is on record?
**A.** Its IC50 is 11 nM.

**Q.** Which IC50 does the source give for CC[C@H](C)[C@@H]1NC(=O)[C@H](CC(C)C)N(C)C(=O)C[C@@H](C(=O)N2C3CCC2COC3)N(C)C(=O)[C@H](C2CCCC2)N(C)C(=O)C2(CCCC2)NC(=O)[C@@H]2CCCN2C(=O)[C@H](CCc2cc(F)c(C(F)(F)F)c(F)c2)NC(=O)CN(C)C(=O)[C@H](Cc2ccc(C)cc2)N(CC)C(=O)[C@@H]2CCN2C(=O)[C@H](C)N(C)C1=O [Compound 1215] ([NMeL]I[NMeA][Aze][NEtPhe(4-Me)][Sar][hPhe(3,5-F2-4-CF3)]P[Ac5c][NMeGly(cPent)][NMeD]-{3Oxa8azabicyclo(3.2.1)octane}; lactam N-11) here?
**A.** Its IC50 is 1.8 nM.

**Q.** How did the IC50 turn out when CCCC[C@@H]1NC(=O)[C@H](Cc2cccc(I)c2)NC(=O)CN(C)C(=O)[C@H](Cc2ccc(Cl)cc2)N(C)C(=O)CN(C)C(=O)CN(C)C(=O)[C@H]([C@@H](C)CC)NC(=O)[C@H](CC(C)C)N(C)C(=O)C[C@@H](C(=O)N2CCCCC2)N(C)C(=O)[C@H](CC(C)C)NC(=O)[C@H](Cc2cccc(Cl)c2)N(C)C1=O [Compound 1044] ([NMeL]I[Sar][Sar][NMePhe(4-Cl)][Sar][Phe(3-I)][Nle][NMePhe(3-Cl)]L[NMeD]-Piperidide; lactam N-11) was run?
**A.** Its IC50 is 55 nM.

**Q.** For CC[C@H](C)[C@@H]1NC(=O)[C@H](CC(C)C)N(C)C(=O)C[C@@H](C(=O)N2CCCCC2)N(C)C(=O)[C@H](C(C)C)NC(=O)C2(CCCC2)NC(=O)[C@@H]2CCCN2C(=O)[C@H](CCc2ccc(C(F)(F)F)c(Cl)c2)NC(=O)CN(C)C(=O)[C@H](CC2CCCCC2)N(C)C(=O)[C@@H]2CCN2C(=O)[C@H](C)N(C)C1=O [Compound 1106] ([NMeL]I[NMeA][Aze][NMeCha][Sar][hPhe(3-Cl-4-CF3)]P[Ac5c]V[NMeD]-Piperidide; lactam N-11), which IC50 is on record?
**A.** The IC50 was 35 nM.

**Q.** Which IC50 does the source give for CC[C@H](C)[C@@H]1NC(=O)[C@H](CC(C)C)N(C)C(=O)C[C@@H](C(=O)N2CCCCC2)N(C)C(=O)[C@H](C(C)C)N(C)C(=O)[C@](C)(CC)NC(=O)[C@@H]2CCCN2C(=O)[C@H](CCc2ccc(C(F)(F)F)c(Cl)c2)NC(=O)CN(C)C(=O)[C@H](CC2CCCCC2)N(C)C(=O)[C@@H]2CCN2C(=O)[C@H](C)N(C)C1=O [Compound 394] ([NMeL]I[NMeA][Aze][NMeCha][Sar][hPhe(3-Cl-4-CF3)]P[Iva][NMeV][NMeD]-Piperidide; lactam N-11) here?
**A.** The IC50 was 13 nM.

**Q.** CC[C@H](C)[C@@H]1NC(=O)[C@H](CC(C)C)N(C)C(=O)C[C@@H](C(=O)N2CCCCC2)N(C)C(=O)[C@H](CC(C)C)NC(=O)C(C)(C)N(C)C(=O)[C@H](Cc2ccccc2OC(F)(F)F)NC(=O)[C@H](Cc2cccc(I)c2)NC(=O)CN(C)C(=O)[C@H](Cc2ccc(C)cc2)N(C)C(=O)[C@@H]2CCN2C(=O)[C@H](C)N(C)C1=O [Compound 1129] ([NMeL]I[NMeA][Aze][NMePhe(4-Me)][Sar][Phe(3-I)][Phe(2-OCF3)][NMeAib]L[NMeD]-Piperidide; lactam N-11) was tested. Which IC50 did it give?
**A.** The IC50 was 150 nM.

**Q.** With CC(C)C[C@H]1C(=O)N[C@@H](CC2CCC2)C(=O)N(C)CC(=O)N(C)CC(=O)N(C)[C@@H](CC2CCCCC2)C(=O)N(C)CC(=O)N[C@@H](CCc2ccc(C(F)(F)F)c(Cl)c2)C(=O)N2CCC[C@H]2C(=O)NC2(CCCC2)C(=O)N(C)[C@@H](C(C)C)C(=O)N[C@H](C)CC(=O)N1C [Compound 290] (cyclo([Ac5c][NMeV][d(β3hA)][NMeL][Cba][Sar][Sar][NMeCha][Sar][hPhe(3-Cl-4-CF3)]P)) as the compound, how does the IC50 read?
**A.** The IC50 was 160 nM.

**Q.** How did the IC50 turn out when CC[C@H](C)[C@@H]1NC(=O)[C@H](CC(C)C)N(C)C(=O)C[C@@H](C(=O)N(C)C)N(C)C(=O)[C@H]([C@@H](C)CC)N(C)C(=O)[C@H](C(C)C)NC(=O)[C@@H](C)NC(=O)[C@H](CCc2ccc(C(F)(F)F)c(Cl)c2)NC(=O)CN(C)C(=O)[C@H](Cc2ccc(C)cc2)N(C)C(=O)[C@@H]2CCN2C(=O)[C@H](C)N(C)C1=O [Compound 915] ([NMeL]I[NMeA][Aze][NMePhe(4-Me)][Sar][hPhe(3-Cl-4-CF3)][dA]V[NMeI][NMeD]-NMe2; lactam N-11) was run?
**A.** The IC50 was 40 nM.

**Q.** CC[C@H](C)[C@@H]1NC(=O)[C@H](CC(C)C)N(C)C(=O)C[C@@H](C(=O)N(C)C)N(C)C(=O)[C@H](C2CCCC2)N(C)C(=O)C2(CCCC2)NC(=O)[C@H](CC(=O)N2CC(F)(F)C2)N(C)C(=O)[C@H](CCc2ccc(C(F)(F)F)c(Cl)c2)NC(=O)CN(C)C(=O)[C@H](CC2CCCCC2)N(C)C(=O)[C@@H]2CCN2C(=O)[C@H](C)N(C)C1=O [Compound 761] ([NMeL]I[NMeA][Aze][NMeCha][Sar][hPhe(3-Cl-4-CF3)][NMeD](Azetidine(3,3-F2))[Ac5c][NMeGly(cPent)][NMeD]-NMe2; lactam N-11) was tested. Which IC50 did it give?
**A.** Its IC50 is 0.57 nM.
